Measurements taken from patent US20110296540A1, “ASSAY FOR SCREENING ANTIDEPRESSANTS” (priority 2008, published 2011).
Like-named read-outs stand apart in the source and are kept apart here.

Columns and labels:
[1] = test system: DCX+ immature granule cells; assay: DCX immunohistochemistry: number, dendritic morphology and Sholl analysis of immature granule cells; format: in vivo, mice
Experimental: Immunohistochemistry and confocal imaging. Mice were anesthetized with ketamine/xylazine (100 and 7 mg/kg, respectively) and transcardially perfused (cold saline, followed by 4% cold paraformaldehyde in PBS). […] Immunohistochemistry was performed in the following steps: 2 h incubation in 1:1 formamide/2×SSC at 65° C., 5 min rinse in 2×SSC, 30 min incubation in 2N HCl at 37° C., and 10 min rinse in 0.1M boric acid, pH 8.5, 2 h incubation in 0.1M PBS with 0.3% Triton X-100, and 5% normal donkey serum. Sections were then incubated overnight at 4° C. in primary antibodies for doublecortin (goat; 1:500; Santa Cruz Biotechnology, Santa Cruz, Calif.), bromodeoxyuridine (BrdU; rat; 1:100; Serotec, Oxford, UK), and neuronal-specific nuclear protein (NeuN) (mouse; 1:500; Chemicon, Temecula, Calif.). Biotinylated or fluorescent secondary antibodies were used. All secondary antibodies were purchased from Jackson ImmunoResearch (West Grove, Pa.). DCX staining for Sholl analysis was done as follows: sections were rinsed in PBS, treated with 1% H2O2 in 1:1 PBS and methanol for 15 min to quench endogenous peroxidase activity (and to enhance dendritic staining), incubated in 10% normal donkey serum and 0.3% Triton X-100 for 30 min, and then incubated overnight at 4° C. in primary antibody for doublecortin. After secondary antibody incubation, sections were developed using Vector ABC kit and DAB kit. Bright-field images were taken with a Zeiss (Oberkochen, Germany) Axioplan-2 upright microscope. Stereological procedure was used to quantify labeled cells (Malberg et al., 2000 ? ). All cell counting for triple-stained sections were done using a Zeiss LSM 510 META confocal microscope.
Sholl analysis. DCX-positive (DCX^+) granule cells with tertiary, relatively untruncated dendritic branches or BrdU/DCX double-positive cells (one DCX^+ cell was traced for each […] hippocampal slice; n=10-12 cells per brain for DAB-stained sections; n=4-8 cells per brain for fluorescent staining, 5 mice per group) were traced using camera lucida at 40× magnification (Neurolucida; MicroBrightField, Williston, Vt.). Adult SvEvTac129 mice (16-20 weeks old) were used to obtain sparsely labeled DCX^+ cells. DCX immunohistochemistry was done to maximize the labeling of dendrites (see above methods). Sholl analysis for dendritic complexity was performed using the accompanying software (NeuroExplorer; MicroBrightField), calculating dendritic complexity including dendritic length and number of intersections (branch points). All samples were number coded, and analysis was done blind to treatment.
Next, the DCX^+ cells were subcategorized according to their dendritic morphology: (1) DCX^+ cells with no tertiary dendritic processes (FIG. 2A), and (2) DCX^+ cells with complex, tertiary dendrites (FIG. 2B). […] The results are mean±SEM of DCX^+ cells with tertiary branches.
Double fluorescent immunohistochemistry for BrdU and DCX were performed on hippocampal sections. BrdU cells that were also DCX' were identified and then Sholl analysis on the double-positive cells was performed (FIG. 3 D-G).

[2] = test system: C57BL/6Ntac mice; assay: Forced Swim Test, chronic corticosterone model; format: in vivo; conditions: for immobility duration (FST): mean±SEM
[3] = test system: C57BL/6Ntac mice; assay: Splash test (grooming); format: in vivo; conditions: corticosterone, without or with 3 weeks of fluoxetine 18 mg/kg/day; mean±SEM
Experimental: This test consisted in squirting 200 ul of a 10% sucrose solution on the mouse's snout. The grooming duration and grooming frequency were then recorded.

[4] = test system: β-arrestin 2 knock out mice (S129/Sv×C57BL/6); assay: Open Field paradigm in β-arrestin 2 knock out mice and littermates; format: in vivo
From the text: Adult male C57BL/6Ntac mice were purchased from Taconic Farms (Germantown, N.Y., USA; Lille Skensved, Denmark). Male heterozygous β-arrestin 2+/− and heterozygous female mutant β-arrestin+/− mice (age 4-6 months, 25-30 g body weight) were bred on a mixed S129/Sv×C57BL/6 genetic background raised at the animal facility of Columbia University (New York, USA). […] Food and water were provided ad libitum. Behavioral testing occurred during the light phase between 0700 and 1900 for the OF, NSF and FST, splash test.
For all the studies, control mice received β-CD.
Motor activity was quantified in four Plexiglas open field boxes 43 times 43 cm2 (MED Associates, Georgia, Vt.). Two sets of 16 pulse-modulated infrared photobeams were placed on opposite walls 2.5-cm apart to record x-y ambulatory movements. Activity chambers were computer interfaced for data sampling at 100-ms resolution. The computer defined grid lines that divided each Open Field into center and surround regions, with each of four lines being 11 cm from each wall. Dependent measures in the center were the total time and the number of entries over a 30-min period of test. The whole session was also divided in 5 periods to analyze the time spent in the center every 5 min. The overall motor activity was quantified as the total distance traveled (cm) or distance traveled in the center divided by total distance traveled.

[5] = test system: β-arrestin 2 knock out mice; assay: Novelty Suppressed Feeding paradigm in β-arrestin 2 knock out mice and littermates; format: in vivo
From the text: Twenty-four hours prior to behavioral testing, all food was removed from the home cage. At the time of testing, a single pellet of food (regular chow) was placed on a white paper platform positioned in the center of the box.

[6] = test system: C57BL/6Ntac mice
From the text: The novelty suppressed feeding paradigm (NSF) is a conflict test that elicits competing motivations: the drive to eat and the fear of venturing into the center of brightly lit arena. […] Briefly, the testing apparatus consisted of a plastic box (50×50×20 cm), the floor of which was covered with approximately 2 cm of wooden bedding. Twenty-four hours prior to behavioral testing, all food was removed from the home cage. At the time of testing, a single pellet of food (regular chow) was placed on a white paper platform positioned in the center of the box. An animal was placed in a corner of the box, and a stopwatch was immediately started. The latency to eat (defined as the mouse sitting on its haunches and biting the pellet with the use of forepaws) was timed. Immediately afterwards, the animal was transferred to its home cage, and the amount of food consumed by the mouse in the subsequent 5 min was measured, serving as a control for change in appetite as a possible confounding factor. Each mouse was weighed before food deprivation and before testing to assess the percentage of body weight loss (data not shown).
Mice were anesthetized with ketamine and xylazine (100 mg/ml ketamine; 20 mg/ml xylazine), placed in a stereotaxic frame and exposed to cranial irradiation using a Siemens Stabilopan X-ray system operated at 300 kVp and 20 mA. […] Dosimetry was done using a Capintec Model PR06G electrometer ionization chamber and Kodak Readypack Radiographic XV films. The corrected dose rate was approximately 1.8 Gy per min at a source to skin distance of 30 cm. The procedure lasted 2 min and 47 sec, delivering a total of 5 Gy. Three 5 Gy doses were delivered on days 1, 4 and 8.

[7] = molecular target: T1, 5-HT1A autoreceptors (Mus musculus, UniProt Q64264)
T1 sequence (Q64264 1-421): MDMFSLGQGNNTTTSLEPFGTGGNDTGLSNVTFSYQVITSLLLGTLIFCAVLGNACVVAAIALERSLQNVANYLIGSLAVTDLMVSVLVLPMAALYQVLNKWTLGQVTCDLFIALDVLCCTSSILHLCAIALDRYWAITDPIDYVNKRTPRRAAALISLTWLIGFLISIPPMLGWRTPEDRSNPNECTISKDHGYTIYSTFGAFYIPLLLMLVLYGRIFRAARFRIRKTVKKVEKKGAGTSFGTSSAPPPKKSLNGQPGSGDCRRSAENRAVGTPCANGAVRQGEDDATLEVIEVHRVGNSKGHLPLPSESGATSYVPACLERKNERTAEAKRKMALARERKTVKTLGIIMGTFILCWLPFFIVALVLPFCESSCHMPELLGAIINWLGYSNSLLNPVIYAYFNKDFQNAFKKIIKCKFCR
Experimental: (A) 8-OH DPAT-induced hypothermia in 1A-High and 1A-Low mice. Following establishment of baseline body temperature, animals received IP injections of 0.1 mg/kg 8-OHDAPT, 0.5 mg/kg 8-OH DPAT, or saline (N=5/dose/group). Values are expressed as core temperature change from the last recorded baseline temperature.

## CNCCC(Oc1ccc(C(F)(F)F)cc1)c1ccccc1 (centres unmarked) [fluoxetine]
[1]; chronic (28 d)
  dendritic length of DCX+ cells (Sholl analysis): increased
  number of DCX+ cells with tertiary dendrites: significantly increased
  number of intersections of DCX+ cells (Sholl analysis): increased
[1]; three weeks of fluoxetine
  dendritic length in 3-week-old granule cells (BrdU/DCX double-positive): enhanced
  number of intersections in 3-week-old granule cells (BrdU/DCX double-positive): enhanced
[2]; corticosterone treated animals, alone or with antidepressant
  immobility duration (FST): 311.4 s
[2]; non-corticosterone treated animals
  immobility duration (FST): 302.9 s
[2]; two-way ANOVA, corticosterone 7 weeks, antidepressants last 3 weeks
  duration of immobility (FST), effect: decreased
[3]
  grooming duration (splash test): 99.8 s
  grooming frequency (splash test): 9±1
[4]; wild-type animals, 4 weeks fluoxetine
  total number of entries in the center (Open Field): increased
[4]; wild-type animals, 4 weeks fluoxetine 18 mg/kg/day
  time spent in the center (Open Field): increased
[4]; β-arrestin 2 knock out mice
  effect of fluoxetine on time spent in the center (Open Field): abolished
  total ambulatory distance (Open Field): absence of effects
  total number of entries in the center (Open Field): absence of effects
[5]; mutant (β-arrestin 2 knock out) mice
  latency to feed (NSF): had no effect
[5]; wild-type mice
  latency to feed (NSF): significantly decreased
[6]; after hippocampal irradiation, chronic corticosterone
  effects of fluoxetine to reverse the anxiety/depressive-like state in the NSF paradigm: completely abolished
[6]; chronic fluoxetine 18 or imipramine 40 mg/kg/day in corticosterone-treated mice
  corticosterone-induced change in the latency to feed (NSF): reversed
[6]; irradiated corticosterone/fluoxetine group
  latency to feed (NSF): 546.2 s
[6]; sham corticosterone/fluoxetine group
  latency to feed (NSF): 371.3 s
[7]; 1A-High mice treated with fluoxetine for 30 days
  hypothermic response to 8-OH DPAT after chronic fluoxetine: no hypothermic response
[7]; 1A-Low mice treated with fluoxetine for 30 days
  hypothermic response to 8-OH DPAT after chronic fluoxetine: blunted hypothermic response
